The record followed here is patent US9365588B2, “Benzoxazines as modulators of ion channels” (Vertex Pharmaceuticals Incorporated, priority 2011, dated 2016).

SMILES strings stand for the structures.

The target of this assay is human NaV 1.7 (Homo sapiens, UniProt Q15858). Kind of assay: E-VIPR optical membrane potential assay with electrical stimulation. Type of assay: cell-based. The settings on record: sodium channel inhibition; read-out: Binned Activity Data (IC50). The text has this: Assays for Detecting and Measuring NaV Inhibition Properties of Compound E-VIPR Optical Membrane Potential Assay Method with Electrical Stimulation
Chain of human NaV 1.7 (Q15858 whole entry): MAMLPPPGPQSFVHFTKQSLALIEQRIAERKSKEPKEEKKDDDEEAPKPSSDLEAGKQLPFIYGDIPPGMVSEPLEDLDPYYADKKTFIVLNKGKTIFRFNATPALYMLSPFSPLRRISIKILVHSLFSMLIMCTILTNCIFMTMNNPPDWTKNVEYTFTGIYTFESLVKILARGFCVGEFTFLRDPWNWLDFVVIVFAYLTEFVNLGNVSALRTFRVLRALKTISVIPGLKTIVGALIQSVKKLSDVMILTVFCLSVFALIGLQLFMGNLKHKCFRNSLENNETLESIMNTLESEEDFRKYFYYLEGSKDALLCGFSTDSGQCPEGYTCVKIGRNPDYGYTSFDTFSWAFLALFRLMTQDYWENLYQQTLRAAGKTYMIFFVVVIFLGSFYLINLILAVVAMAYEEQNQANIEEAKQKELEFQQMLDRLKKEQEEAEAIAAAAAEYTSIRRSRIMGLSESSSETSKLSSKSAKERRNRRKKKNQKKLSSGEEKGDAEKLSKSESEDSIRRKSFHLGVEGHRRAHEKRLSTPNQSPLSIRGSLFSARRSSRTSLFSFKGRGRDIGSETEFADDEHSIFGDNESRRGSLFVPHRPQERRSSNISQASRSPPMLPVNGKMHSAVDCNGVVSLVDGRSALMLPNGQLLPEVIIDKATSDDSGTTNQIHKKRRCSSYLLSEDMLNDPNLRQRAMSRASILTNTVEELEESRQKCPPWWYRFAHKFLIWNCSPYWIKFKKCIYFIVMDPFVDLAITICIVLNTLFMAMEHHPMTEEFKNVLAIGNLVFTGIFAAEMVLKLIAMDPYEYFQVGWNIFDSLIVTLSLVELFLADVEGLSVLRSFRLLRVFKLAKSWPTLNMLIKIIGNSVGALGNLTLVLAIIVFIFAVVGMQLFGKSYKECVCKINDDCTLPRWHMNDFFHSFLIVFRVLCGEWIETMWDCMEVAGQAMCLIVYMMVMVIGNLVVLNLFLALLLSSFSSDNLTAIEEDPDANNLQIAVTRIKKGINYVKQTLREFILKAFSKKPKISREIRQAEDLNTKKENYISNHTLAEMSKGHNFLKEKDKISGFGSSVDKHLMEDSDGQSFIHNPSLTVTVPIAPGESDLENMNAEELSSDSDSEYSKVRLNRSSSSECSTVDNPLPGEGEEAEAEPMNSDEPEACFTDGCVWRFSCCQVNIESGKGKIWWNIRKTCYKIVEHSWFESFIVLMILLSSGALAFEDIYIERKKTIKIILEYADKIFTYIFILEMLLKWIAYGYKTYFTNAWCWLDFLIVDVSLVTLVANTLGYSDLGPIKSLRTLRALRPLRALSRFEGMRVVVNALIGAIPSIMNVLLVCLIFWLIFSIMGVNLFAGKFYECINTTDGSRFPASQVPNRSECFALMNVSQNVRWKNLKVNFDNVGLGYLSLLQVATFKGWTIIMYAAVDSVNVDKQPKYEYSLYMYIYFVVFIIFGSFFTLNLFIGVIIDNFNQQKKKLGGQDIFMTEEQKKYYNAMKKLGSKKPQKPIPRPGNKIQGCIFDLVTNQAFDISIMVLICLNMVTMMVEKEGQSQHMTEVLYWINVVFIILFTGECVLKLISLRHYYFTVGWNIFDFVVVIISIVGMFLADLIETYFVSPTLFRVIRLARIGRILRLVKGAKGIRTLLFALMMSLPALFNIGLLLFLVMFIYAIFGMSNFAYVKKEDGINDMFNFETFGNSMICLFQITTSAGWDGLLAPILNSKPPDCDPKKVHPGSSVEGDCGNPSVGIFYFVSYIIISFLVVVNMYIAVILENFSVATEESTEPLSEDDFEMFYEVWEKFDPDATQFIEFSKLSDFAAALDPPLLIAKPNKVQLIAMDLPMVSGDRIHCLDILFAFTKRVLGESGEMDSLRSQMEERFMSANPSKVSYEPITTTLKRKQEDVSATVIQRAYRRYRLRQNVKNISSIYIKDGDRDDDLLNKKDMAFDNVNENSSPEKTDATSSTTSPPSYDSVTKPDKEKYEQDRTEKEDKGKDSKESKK
Sodium channels are voltage-dependent proteins that can be activated by inducing membrane voltage changes by applying electric fields. The electrical stimulation instrument and methods of use are described in Ion Channel Assay Methods PCT/US01/21652, herein incorporated by reference and are referred to as E-VIPR. The instrument comprises a microtiter plate handler, an optical system for exciting the coumarin dye while simultaneously recording the coumarin and oxonol emissions, a waveform generator, a current- or voltage-controlled amplifier, and a device for inserting electrodes in well. Under integrated computer control, this instrument passes user-programmed electrical stimulus protocols to cells within the wells of the microtiter plate.
24 hours before the assay on E-VIPR, HEK cells expressing human NaV subtype, like NaV 1.7, are seeded in 384-well poly-lysine coated plates at 15,000-20,000 cells per well. Other subtypes are performed in an analogous mode in a cell line expressing the NaV of interest. HEK cells are grown in media (exact composition is specific to each cell type and NaV subtype) supplemented with 10% FBS (Fetal Bovine Serum, qualified; GibcoBRL #16140-071) and 1% Pen-Strep (Penicillin-Streptomycin; GibcoBRL #15140-122). Cells are grown in vented cap flasks, in 90% humidity and 10% CO2, to 100% confluence. They are usually split by trypsinization 1:10 or 1:20, depending on scheduling needs, and grown for 2-3 days before the next split.
Bath1 buffer. Glucose 10 mM (1.8 g/L), Magnesium Chloride (Anhydrous), 1 mM (0.095 g/L), Calcium Chloride, 2 mM (0.222 g/L), HEPES 10 mM (2.38 g/L), Potassium Chloride, 4.5 mM (0.335 g/L), Sodium Chloride 160 mM (9.35 g/L).
Hexyl Dye Solution: Bath1 Buffer+0.5% β-cyclodextrin (make this prior to use, Sigma #C4767), 8 μM CC2-DMPE+2.5 μM DiSBAC6(3). To make the solution Add volume of 10% Pluronic F127 stock equal to volumes of CC2-DMPE+DiSBAC6(3). The order of preparation is first mix Pluronic and CC2-DMPE, then add DiSBAC6(3) while vortexing, then add Bath1+β-Cyclodextrin.
1) Pre-spot compounds (in neat DMSO) into compound plates. Vehicle control (neat DMSO), the positive control (20 mM DMSO stock tetracaine, 125 μM final in assay) and test compounds are added to each well at 160× desired final concentration in neat DMSO. Final compound plate volume will be 80 μL (80-fold intermediate dilution from 1 μL DMSO spot; 160-fold final dilution after transfer to cell plate). Final DMSO concentration for all wells in assay is 0.625%.
2) Prepare Hexyl Dye Solution.
3) Prepare cell plates. On the day of the assay, medium is aspirated and cells are washed three times with 100 μL of Bath1 Solution, maintaining 25 μL residual volume in each well.
4) Dispense 25 μL per well of Hexyl Dye Solution into cell plates. Incubate for 20-35 minutes at room temp or ambient conditions.
5) Dispense 80 μL per well of Bath1 into compound plates. Acid Yellow-17 (1 mM) is added and Potassium Chloride can be altered from 4.5 to 20 mM depending on the NaV subtype and assay sensitivity.
6) Wash cell plates three times with 100 μL per well of Bath1, leaving 25 μL of residual volume. Then transfer 25 uL per well from Compound Plates to Cell Plates. Incubate for 20-35 minutes at room temp/ambient condition
7) Read Plate on E-VIPR. Use the current-controlled amplifier to deliver stimulation wave pulses for typically 9 seconds and a scan rate of 400 Hz. A pre-stimulus recording is performed for 0.5 seconds to obtain the un-stimulated intensities baseline. The stimulatory waveform is applied for 9 seconds followed by 0.5 seconds of post-stimulation recording to examine the relaxation to the resting state. […]
Consider `Cc1cc(C(=O)N2CCC3(CC2)Oc2ccccc2-c2c3cnn2C)ccc1S(C)(=O)=O` [Compound 141], for which the IC50 (commonly the concentration at which inhibition is half-maximal) was at most 2000 nM.

Consider `CC[C@H](C)Oc1ccc(C(=O)N2CCC3(CC2)Oc2cc(F)ccc2-n2cccc23)cc1OC` [Compound 142], for which the IC50 is at most 2000 nM.

In the case of `COc1ccc(C(=O)N2CCC3(CC2)Oc2ccccc2-c2c3cnn2C)cc1C(F)(F)F` [Compound 143], the IC50 fell in the range of 2000 to 5000 nM.

Take `CC[C@@H](C)Oc1ccc(C(=O)N2CCC3(CC2)Oc2ccccc2-n2cccc23)cc1C#N` [Compound 145]: the IC50 is at most 2000 nM.

Consider `COc1cc(C(=O)N2CCC3(CC2)Oc2ccccc2-c2c3cnn2C)ccc1OC[C@H](C)OC` [Compound 146], for which the IC50 is at most 2000 nM.

Consider `Cn1cccc(C(=O)N2CCC3(CC2)Oc2cc(Cl)ccc2-n2cccc23)c1=O` [Compound 147], for which the IC50 is at most 2000 nM.

For the compound `CC(C)NC(=O)c1ccc(C(=O)N2CCC3(CC2)Oc2ccccc2-c2c3cnn2C)cc1` [Compound 150], the IC50 was over 5000 nM.

As for `O=C(c1ccc(S(=O)(=O)[C@H]2CCOC2)cc1)N1CCC2(CC1)Oc1ccccc1-n1c(C(F)(F)F)ccc12` [Compound 151], the IC50 was at most 2000 nM.

As to `Cc1cc(C(=O)N2CCC3(CC2)Oc2ccccc2-n2ccnc23)ccc1OC(C)C` [Compound 153], the IC50 is at most 2000 nM.

`CCn1ncc2c1-c1ccccc1OC21CCN(C(=O)c2cccc(F)c2OC)CC1` [Compound 154]: the IC50 is at most 2000 nM.

`Cn1ncc2c1-c1ccccc1OC21CCN(C(=O)c2ccnc(N3CCCCC3)c2)CC1` [Compound 155]: the IC50 is at most 2000 nM.

Consider `COc1cc(C(=O)N2CCC3(CC2)Oc2ccccc2-n2c(C#N)ccc23)ccc1OC(C)C` [Compound 156], for which the IC50 is at most 2000 nM.

On to `Cc1cc(OC(C)C)ccc1C(=O)N1CCC2(CC1)Oc1ccccc1-c1c2cnn1C` [Compound 158], for which the 50% inhibitory concentration (IC50) was at most 2000 nM.

As for `Cc1ccc(C(=O)N2CCC3(CC2)Oc2ccccc2-n2cccc23)cc1C` [Compound 159], the IC50 was at most 2000 nM.

For `Cn1ncc2c1-c1ccccc1OC21CCN(C(=O)c2cccc3c2CCO3)CC1` [Compound 160], the IC50 is over 5000 nM.

With `COc1ccc(C(=O)N2CCC3(CC2)Oc2ccccc2-n2cc(C)cc23)cc1C(F)(F)F` [Compound 161], the IC50 was at most 2000 nM.

`COc1ccc(C(=O)N2CCC3(CC2)Oc2ccccc2-n2c(C(F)(F)F)ccc23)c(OC)c1OC` [Compound 164]: the IC50 is at most 2000 nM.

In the case of `COc1cc(C(=O)N2CCC3(CC2)Oc2cccnc2-n2cccc23)ccc1OCCC(C)C` [Compound 165], the IC50 is at most 2000 nM.

On to `COC(C)(C)c1ccc(C(=O)N2CCC3(CC2)Oc2cc(F)ccc2-n2cccc23)cc1C` [Compound 166], for which the IC50 is at most 2000 nM.

On to `CCn1ncc2c1-c1ccccc1OC21CCN(C(=O)c2ccccc2OC(F)F)CC1` [Compound 167], for which the IC50 is at most 2000 nM.

As for `COc1cc(C(=O)N2CCC3(CC2)Oc2cc(F)ccc2-n2cccc23)ccc1C(C)(C)O` [Compound 168], the IC50 was at most 2000 nM.

Consider `COc1cc(C(=O)N2CCC3(CC2)Oc2ccccc2-c2c3cnn2C)ccc1OC(F)F` [Compound 169], for which the IC50 lay in the range of 2000 to 5000 nM.

Turning to `O=C(c1ccc(O[C@@H]2CCOC2)c(C(F)(F)F)c1)N1CCC2(CC1)Oc1ccccc1-n1cccc12` [Compound 170], the IC50 is at most 2000 nM.

As to `CC(=O)c1ccc2n1-c1ccccc1OC21CCN(C(=O)c2ccc(OC(C)C)c(C)c2)CC1` [Compound 171], the IC50 was at most 2000 nM.

`COC[C@H](C)Oc1ccc(C(=O)N2CCC3(CC2)Oc2cc(Cl)ccc2-n2cccc23)cc1OC` [Compound 172]: the IC50 is at most 2000 nM.

On to `Cn1cc2c(n1)-c1ccccc1OC21CCN(C(=O)c2ccc3ncsc3c2)CC1` [Compound 173], for which the IC50 is at most 2000 nM.

In the case of `CC(C)CCOc1ccc(C(=O)N2CCC3(CC2)Oc2ccccc2-c2c3cnn2C)cc1` [Compound 174], the IC50 is at most 2000 nM.

For `Cn1cc2c(n1)-c1cc(F)ccc1OC21CCN(C(=O)c2ccccc2OC(F)(F)F)CC1` [Compound 175], the IC50 was at most 2000 nM.

Consider `COc1cc(C(=O)N2CCC3(CC2)Oc2ccccc2-n2c(C(F)(F)F)ccc23)ccc1OCC(N)=O` [Compound 176], for which the half-inhibitory concentration (IC50) was at most 2000 nM.

For `CC(C)Oc1ccc(C(=O)N2CCC3(CC2)Oc2ccc(F)cc2-c2nn(C)cc23)cc1CO` [Compound 180], the IC50 was at most 2000 nM.

As to `COc1ccc(C(=O)N2CCC3(CC2)Oc2ccccc2-n2ccc(C)c23)cc1C(F)(F)F` [Compound 181], the IC50 was at most 2000 nM.

`Cn1ncc2c1-c1ccccc1OC21CCN(C(=O)c2ccc3c(c2)CC(C)(C)O3)CC1` [Compound 182]: the IC50 fell in the range of 2000 to 5000 nM.

In the case of `CC(C)Oc1ccc(C(=O)N2CCC3(CC2)Oc2ccccc2-c2c3cnn2C)c2ncccc12` [Compound 183], the IC50 was at most 2000 nM.

Turning to `O=C(c1ccc(OCCO)cc1)N1CCC2(CC1)Oc1ccccc1-n1cccc12` [Compound 184], the IC50 was at most 2000 nM.

As to `Cn1ncc2c1-c1ccccc1OC21CCN(C(=O)c2cccc3[nH]ccc23)CC1` [Compound 186], the IC50 is at most 2000 nM.

In the case of `COc1ccc(C(=O)N2CCC3(CC2)Oc2ccccc2-c2c3cnn2C)c(OC)c1` [Compound 187], the IC50 was at most 2000 nM.

Consider `Cc1cc(OC(C)C)ccc1C(=O)N1CCC2(CC1)Oc1ccccc1-c1nn(C)cc12` [Compound 188], for which the IC50 is at most 2000 nM.

Consider `COc1ccc(OC)c(C(=O)N2CCC3(CC2)Oc2cc(Cl)ccc2-n2cccc23)c1` [Compound 189], for which the IC50 is at most 2000 nM.

In the case of `CCCOc1ccc(C(=O)N2CCC3(CC2)Oc2ccccc2-c2c3cnn2C)cc1OC` [Compound 190], the IC50 is at most 2000 nM.

`COc1cc(C(=O)N2CCC3(CC2)Oc2ccccc2-n2cccc23)ccc1OCCOC(F)(F)F` [Compound 191]: the IC50 was at most 2000 nM.

As for `COC(C)(C)c1ccc(C(=O)N2CCC3(CC2)Oc2cc(Cl)ccc2-n2cccc23)cc1C` [Compound 193], the IC50 was at most 2000 nM.

With `Cn1ncc2c1-c1ccccc1OC21CCN(C(=O)c2cccc(F)c2OC(F)F)CC1` [Compound 194], the IC50 is at most 2000 nM.

On to `CS(=O)(=O)c1ccc2n1-c1ccccc1OC21CCN(C(=O)c2ccccc2OC(F)F)CC1` [Compound 195], for which the IC50 is at most 2000 nM.

`COc1cc(C(=O)N2CCC3(CC2)Oc2cc(F)ccc2-n2cccc23)ccc1OC1CCC(O)C1` (stereo not shown) [Compound 196]: the IC50 is at most 2000 nM.

Take `N#Cc1ccc2n1-c1ccccc1OC21CCN(C(=O)c2ccc(OCCO)cc2)CC1` [Compound 197]: the IC50 is at most 2000 nM.

Consider `CCCCc1nc2cc(C(=O)N3CCC4(CC3)Oc3ccccc3-n3c(C(F)(F)F)ccc34)ccc2o1` [Compound 198], for which the IC50 is at most 2000 nM.

As to `COc1cc(C(=O)N2CCC3(CC2)Oc2cc(Cl)ccc2-n2cccc23)ccc1OCC(C)(C)OC` [Compound 199], the IC50 was at most 2000 nM.

Consider `CCc1ccc(C(=O)N2CCC3(CC2)Oc2cc(F)ccc2-n2cccc23)cc1OC` [Compound 200], for which the IC50 is at most 2000 nM.

With `Cc1cc(C(=O)N2CCC3(CC2)Oc2ccccc2-c2c3cnn2C)c(C)cc1OC(C)C` [Compound 202], the IC50 was at most 2000 nM.

As for `COc1cc(C(=O)N2CCC3(CC2)Oc2ccccc2-n2cccc23)ccc1OC[C@@H](C)OC` [Compound 203], the IC50 was at most 2000 nM.

On to `COc1ccc(C(=O)N2CCC3(CC2)Oc2ccccc2-c2c3cnn2C)c(OC(C)C)c1` [Compound 205], for which the IC50 is at most 2000 nM.

Turning to `COc1cc(C(=O)N2CCC3(CC2)Oc2ccccc2-n2c(C#N)ccc23)ccc1O` [Compound 206], the IC50 was at most 2000 nM.
